The values below come from publication PMC9229165, “In Vitro Anticancer Activity Screening of Novel Fused Thiophene Derivatives as VEGFR-2/AKT Dual Inhibitors and Apoptosis Inducers” (Pharmaceuticals, 2022).

Several values for one entry are separate records, joined by “and”; a condition that tells them apart may be missing. Identical values can stand only once. Like-named read-outs stand apart in the source and are kept apart here.

Data set [1] relates to HepG2 cells. In words: MTT antiproliferative assay on HepG2. The format is cell-based. The following applies: mean ± S.D. (n = 3), read-out: Cytotoxicity in IC50, HepG2. How it is done:
(§1) The antiproliferative activity of the thiophene compounds 3a–g, 4a–c, 6a, and 7a–d was evaluated by an in vitro MTT colorimetric assay on two oncogenic cell lines: liver (HepG2) and prostate (PC-3).
(§2) All cell lines (HepG2, PC-3, and nontumorigenic WI38) were supplied from VACSERA (Cairo, Egypt), cultured in DMEM (Invitrogen/Life Technologies, Waltham, MA, USA) at a density of 1.2–1.8 × 10,000 cells/well in a volume of 100 µL of the growth medium, and then incubated for 24 h, and an MTT assay was done as reported by.

The next data set relates to PC-3 cells. In words: MTT antiproliferative assay on PC-3. The following applies: Homo sapiens, PC-3, MTT assay; mean ± S.D. (n = 3); read-out: Cytotoxicity in IC50, PC-3. In kind it is cell-based. How it is done: as §1, §2
A general note: Tetrazolium dyes change colour on reduction, which living cells bring about.

Data set [2] in a line: MTT assay on normal nononcogenic cell line WI38. In kind it is cell-based. The following applies: human, WI38 cells (normal nononcogenic cell line); MTT assay; noncancerous cell line; mean ± S.D. (n = 3); read-out: Cytotoxicity in IC50, WI38. The protocol: (§3) The aforementioned results illustrate that compounds 3b and 4c are the most promising cytotoxic agents on both cell lines and will be subjected to a thorough mechanistic study to understand their anticancer activity. However, before doing this, their selective toxicity and, thus, their safety were evaluated by measuring the IC50 values against the normal nononcogenic cell line (Wl38) by an MTT assay as listed in Table 1. […] Compound 3b gave SI of 6, and compound 4c gave SI = 12 showing better selectivity toward cancer cells than doxorubicin with SI = 5.
as §2

The test system of the next data set is WI38 cells. Description: MTT assay on normal nononcogenic cell line WI38. The following applies: calculated by dividing the IC50 of WI38/PC-3, SI > 2 is considered safe. The format is cell-based. The protocol:
as §3, §2

The target in data set [3] is T1, VEGFR-2 (Homo sapiens, UniProt P35968). Description: VEGFR-2 phosphorylation cell-based ELISA in HepG2 cells. The following applies: compounds at their formerly determined IC50. A general note: An ELISA detects its analyte on a solid surface through an enzyme-linked reagent.
Procedure: VEGFR-2 phosphorylation was assayed using VEGFR2 Antibody (Phospho-Tyr951) (OAEC00085, AVIVA SYSTEM BIOLOGY) [53], while Akt-1 was assayed by Mouse/Human/Rat Phospho-AKT1 (Ser473) (Cell-Based Phosphorylation ELISA) ELISA Kit-LS-F1447 (LSBio) according to manufacturer’s instructions [54].
Data set [4] deals with T2, AKT-1 (Homo sapiens, UniProt P31749). In words: Akt kinase activity assay kit on cell lysate. In kind it is biochemical. The following applies: LY2780301 as reference.
Source text: (§5) The outcomes were expressed as IC50 values (mean standard deviation) calculated from the dose–response curves and their linear regression equations.
For data set [5], the system named is HepG2 cells. Description: Flow cytometric cell cycle analysis. The format is cell-based. The following applies: HepG2, 48 h, at IC50. The protocol: AKT-1 is known for its downstream activation of several proteins involved in cell proliferation and apoptosis evasion. In addition, it is reported to be involved in G1–S checkpoint transition and proliferation.
(§4) Analyzing the DNA content in the cell cycle phases by flow cytometry was conducted using FACSCalibur (Becton Dickinson, Franklin Lakes, NJ, USA) following the manufacturer’s manual. The cell cycle analysis procedures were as reported by on HepG2 cells after their treatment with the most promising derivatives for 48 h. Further assessment of the proapoptotic effect was determined by the Annexin V-FITC/PI apoptosis detection kit (Catalog # K101-25, BD Biosciences, San Diego, CA, USA).
Background: In flow cytometry, cells or beads pass a laser one at a time.

Data set [6] relates to HepG2 cells. In words: Annexin V-FITC/PI apoptosis detection. In kind it is cell-based. The following applies: HepG2, 48 h; for Apoptosis, Total (cells percentage) / Apoptosis, Early (cells percentage) / Apoptosis, Late (cells percentage) / Necrosis (cells percentage): at IC50; for Apoptosis, Early (cells percentage): Q2 in Figure 6; for Apoptosis, Late (cells percentage): Q3 in Figure 6; for Necrosis (cells percentage): Q4 in Figure 6. How it is done:
Annexin V/PI staining with flow cytometric analysis was adapted to measure early and late apoptotic cells and necrotic cells as presented in Table 3 and Figure 6.
as §4

In the next data set the test system is caspase-3. In words: Active caspase-3 ELISA in HepG2 cells. In kind it is cell-based, human. How it is done: Apoptosis is known to be carried out through three different pathways: intrinsic, extrinsic, and granzyme pathways. One of the controlling proteins in apoptosis is the cysteine protease named caspase with the chief executer caspase 3 [46, 47]. Accordingly, assessing the effect of 3b and 4c on the active caspase-3 level was done in HepG2 cells taking doxorubicin as the reference drug.
The colorimetric ELISA assay for active caspase-3 detection was carried out utilizing Invitrogen™ Caspase-3 (Cleaved) Human ELISA-Kit (KHO1091, CA, USA) according to the manufacturer’s procedures. ROBONIK P2000 ELISA reader was used at 450 nm, and the standard curve was obtained by plotting the mean absorbance of each standard concentration against human caspase-3 concentrations.

In data set [7] the target is T1, VEGFR-2. In words: VEGFR2 (KDR) kinase assay kit. The arrangement: purchased BPS Bioscience 40325. The following applies: read-out: VEGFR-2 kinase inhibitory activity IC50. In kind it is biochemical.
Source text: as §5
Data set [8] concerns the target T2, AKT-1. Description: Phospho-AKT1 (Ser473) cell-based phosphorylation ELISA in HepG2 cells. On the set-up: endogenous in cells; host or cells: HepG2. The protocol: To investigate the success of the design strategy developed in this work, the effect of the promising candidates 3b and 4c was assessed on AKT-1, a crucial protein, by determining their phosphorylation inhibition rate in HepG2 cells and measuring their biochemical kinase inhibitory activity.
VEGFR-2 phosphorylation was assayed using VEGFR2 Antibody (Phospho-Tyr951) (OAEC00085, AVIVA SYSTEM BIOLOGY), while Akt-1 was assayed by Mouse/Human/Rat Phospho-AKT1 (Ser473) (Cell-Based Phosphorylation ELISA) ELISA Kit-LS-F1447 (LSBio) according to manufacturer’s instructions.

Another data set deals with lung, ovarian, CNS cells. The arrangement: method as in PMID 28759878. The following applies: read-out: IC50 range in lung, ovarian, CNS cells; cited from earlier work.
The next data set relates to FAK. On the set-up: method as in PMID 20050669, PMID 31923858. The following applies: cited from earlier work.
For another data set, the system named is PC3 cells. The arrangement: method as in PMID 33328104. The following applies: cited from earlier work.
In another data set the test system is HUVEC cells. The arrangement: method as in PMID 33328104. The following applies: cited from earlier work.

T2 sequence (P31749 whole entry): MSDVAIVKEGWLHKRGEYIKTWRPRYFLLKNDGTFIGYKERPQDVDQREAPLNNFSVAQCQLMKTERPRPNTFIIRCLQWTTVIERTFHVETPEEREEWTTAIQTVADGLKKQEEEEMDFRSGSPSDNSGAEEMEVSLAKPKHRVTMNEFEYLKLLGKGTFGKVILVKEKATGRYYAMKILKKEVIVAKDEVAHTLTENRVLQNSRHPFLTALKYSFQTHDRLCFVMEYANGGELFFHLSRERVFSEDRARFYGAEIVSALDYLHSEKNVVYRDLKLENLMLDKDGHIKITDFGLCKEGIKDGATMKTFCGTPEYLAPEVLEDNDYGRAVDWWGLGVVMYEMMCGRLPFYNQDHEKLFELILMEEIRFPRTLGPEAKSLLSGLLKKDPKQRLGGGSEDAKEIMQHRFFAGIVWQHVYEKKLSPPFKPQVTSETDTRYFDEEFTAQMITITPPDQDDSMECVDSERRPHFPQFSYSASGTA
T1 sequence (P35968 20-1356): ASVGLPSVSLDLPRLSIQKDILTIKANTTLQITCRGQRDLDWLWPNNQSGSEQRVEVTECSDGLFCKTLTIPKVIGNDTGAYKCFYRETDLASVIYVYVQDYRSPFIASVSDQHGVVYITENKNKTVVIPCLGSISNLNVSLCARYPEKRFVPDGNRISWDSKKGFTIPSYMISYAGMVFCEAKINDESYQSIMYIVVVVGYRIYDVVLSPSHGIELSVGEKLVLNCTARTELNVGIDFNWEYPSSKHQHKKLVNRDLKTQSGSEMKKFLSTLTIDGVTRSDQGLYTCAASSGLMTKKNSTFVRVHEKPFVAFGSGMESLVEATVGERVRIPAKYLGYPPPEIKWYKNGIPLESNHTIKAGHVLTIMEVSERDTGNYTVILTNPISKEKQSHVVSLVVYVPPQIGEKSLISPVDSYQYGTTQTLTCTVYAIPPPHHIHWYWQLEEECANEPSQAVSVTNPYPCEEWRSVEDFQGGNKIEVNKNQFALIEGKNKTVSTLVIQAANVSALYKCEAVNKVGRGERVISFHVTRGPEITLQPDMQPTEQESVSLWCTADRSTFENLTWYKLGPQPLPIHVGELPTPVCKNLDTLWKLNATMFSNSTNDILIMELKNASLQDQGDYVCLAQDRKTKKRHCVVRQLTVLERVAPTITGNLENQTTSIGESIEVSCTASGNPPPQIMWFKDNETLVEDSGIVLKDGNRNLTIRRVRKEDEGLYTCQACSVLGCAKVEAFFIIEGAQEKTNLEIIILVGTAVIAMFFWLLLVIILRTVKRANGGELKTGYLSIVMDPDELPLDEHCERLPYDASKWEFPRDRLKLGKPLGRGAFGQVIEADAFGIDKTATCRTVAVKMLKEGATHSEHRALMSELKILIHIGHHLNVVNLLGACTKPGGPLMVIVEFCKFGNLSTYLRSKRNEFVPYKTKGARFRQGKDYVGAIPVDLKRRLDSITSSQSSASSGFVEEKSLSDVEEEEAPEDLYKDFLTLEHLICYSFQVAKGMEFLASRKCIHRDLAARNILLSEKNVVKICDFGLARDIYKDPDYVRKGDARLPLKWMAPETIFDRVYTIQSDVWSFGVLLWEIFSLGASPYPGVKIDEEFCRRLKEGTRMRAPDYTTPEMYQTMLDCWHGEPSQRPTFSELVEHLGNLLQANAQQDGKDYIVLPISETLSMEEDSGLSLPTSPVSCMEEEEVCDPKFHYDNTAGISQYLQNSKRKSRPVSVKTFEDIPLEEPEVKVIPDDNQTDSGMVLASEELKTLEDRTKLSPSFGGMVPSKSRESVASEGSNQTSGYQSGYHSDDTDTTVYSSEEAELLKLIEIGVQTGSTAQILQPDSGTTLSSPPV

By IC50 is commonly meant the concentration that inhibits the measured activity by half. Usually melting point stands for the temperature, or range, at which the solid turns liquid. Consider `CN1CCc2sc3nc(-c4ccc(Cl)cc4)[nH]c(=O)c3c21` [3b, 2-(4-Chlorophenyl)-5-methyl-3,5,6,7-tetrahydro-4H-pyrrolo[2′,3′:4,5]thieno[2,3-d]pyrimidin-4-one], for which the melting point came out at 168 °C. In addition, the IC50 in the data set with HepG2 cells [1] (Homo sapiens, HepG2, MTT assay) amounted to 3.1 µM. Moreover, in the data set on HepG2 cells [1] (MTT assay), the half-maximal inhibitory concentration (IC50) came out at 3.11 ± 0.14 µM. For the same compound, in the data set with PC-3 cells, the IC50 worked out at 2.15 ± 0.12 µM. In addition, in data set [2], the IC50 came to 12.5 ± 0.68 µM. In the data set on WI38 cells, the “Selectivity Index (SI)” value is 6 and 5.79. This compound yielded a VEGFR-2 phosphorylation inhibition at VEGFR-2 [3] of 58.3%. The compound further gave an IC50 against AKT-1 [4] of 6.96 µM. In addition, in the data set with HepG2 cells [5], the “% Content of DNA, G0:G1” value came out at 39.42%; the “% Content of DNA, G2:M” value came out at 4.39%; the “% Content of DNA, PreG1” value amounted to 42.06%; the “% Content of DNA, S” value is 56.19%. Besides, the “Cell cycle comment (phase of arrest)” value in the data set with HepG2 cells [5] is “cell growth arrest@ S”. In the data set with HepG2 cells [6], the “Increase in early apoptotic cells over untreated cells” value amounted to 5 fold; the “Increase in late apoptotic cells over untreated cells” value was 144 fold; the “Apoptosis, Total (cells percentage)” value came to 42.06%; the “Apoptosis, Early (cells percentage)” value turned out to be 2.51%. Besides, in the data set on HepG2 cells [6], the “Apoptosis, Late (cells percentage)” value is 24.53% and the “Necrosis (cells percentage)” value amounted to 15.02%. Besides, in the data set on caspase-3, the “Increase in active caspase-3 level over the untreated cells” value (shortened to “Increase in active caspase-3 level”) was “five-fold”. In addition, the IC50 on VEGFR-2 [7] stood at 0.126 µM. In addition, the “AKT-1 phosphorylation inhibition rate” value at AKT-1 [8] was 63%.

As for `CCOC(=O)c1c(NC(=S)Nc2cc(C)ccc2Cl)sc2c1N(C)CC2` [4c, Ethyl 2-(3-(2-chloro-5-methylphenyl)thioureido)-4-methyl-5,6-dihydro-4H-thieno[3,2-b]pyrrole-3-carboxylate], the IC50 in the data set with HepG2 cells [1] (Homo sapiens, HepG2, MTT assay) turned out to be 3.02 µM. The IC50 in the data set with HepG2 cells [1] (MTT assay) was 3.02 ± 0.14 µM. For the same compound, in the data set on PC-3 cells, the IC50 amounted to 3.12 ± 0.17 µM. Besides, the half-maximal inhibitory concentration (IC50) in data set [2] amounted to 35.3 ± 1.92 µM. The “Selectivity Index (SI)” value in the data set on WI38 cells was 12 and 11.68. The VEGFR-2 phosphorylation inhibition on VEGFR-2 [3] came to 70%. This compound also had an IC50 on AKT-1 [4] of 4.6 µM. In the data set with HepG2 cells [5], the “% Content of DNA, G0:G1” value amounted to 53.28%; the “% Content of DNA, G2:M” value is recorded as 1.48%; the “% Content of DNA, PreG1” value is 29.81%; the “% Content of DNA, S” value amounted to 45.24%. In addition, in the data set with HepG2 cells [6], the “Increase in early apoptotic cells over untreated cells” value is given as 7 fold; the “Increase in late apoptotic cells over untreated cells” value came to 97 fold; the “Apoptosis, Total (cells percentage)” value was determined as 29.81%; the “Apoptosis, Early (cells percentage)” value worked out at 3.85%. Besides, in the data set with HepG2 cells [6], the “Apoptosis, Late (cells percentage)” value is recorded as 16.55% and the “Necrosis (cells percentage)” value is reported as 9.41%. In the data set with caspase-3, the “Increase in active caspase-3 level” value was “six-fold”. For the same compound, the IC50 at VEGFR-2 [7] stood at 0.075 µM. The “AKT-1 phosphorylation inhibition rate” value at AKT-1 [8] was found to be 71.6%.

On to `CCOC(=O)c1c(/N=C(/Nc2cc(C)ccc2Cl)SCC(=O)Nc2ccc(OC)cc2)sc2c1N(C)CC2` [7c, Ethyl (Z)-2-((((2-chloro-5-methylphenyl)amino)((2-((4-methoxyphenyl)amino)-2-oxoethyl)thio)methylene)amino)-4-methyl-5,6-dihydro-4H-thieno[3,2-b]pyrrole-3-carboxylate], for which the melting point was 110 to 112 °C. In addition, the IC50 with HepG2 cells [1] (Homo sapiens, HepG2, MTT assay) came out at 39.6 ± 1.83 µM. Besides, in the data set with PC-3 cells, the IC50 turned out to be 9.72 ± 0.54 µM.

For the compound `CCOC(=O)c1c(/N=C(/Nc2cc(C)ccc2Cl)SCC(=O)Nc2ccc(C)cc2)sc2c1N(C)CC2` [7d, Ethyl (Z)-2-((((2-chloro-5-methylphenyl)amino)((2-oxo-2-(p-tolylamino)ethyl)thio)methylene)amino)-4-methyl-5,6-dihydro-4H-thieno[3,2-b]pyrrole-3-carboxylate], the melting point was 118 to 120 °C. The IC50 in the data set with HepG2 cells [1] (Homo sapiens, HepG2, MTT assay) was found to be 8.91 ± 0.41 µM. In addition, the IC50 with PC-3 cells came to 6.35 ± 0.36 µM.

`COc1cccc2c1C(=O)c1c(O)c3c(c(O)c1C2=O)C[C@@](O)(C(=O)CO)C[C@@H]3O[C@H]1C[C@H](N)[C@H](O)[C@H](C)O1` [Doxorubicin, reference compound]: the IC50 in the data set on HepG2 cells [1] (Homo sapiens, HepG2, MTT assay) amounted to 2.09 ± 0.1 µM; in the data set on PC-3 cells it was 2.53 ± 0.14 µM; in data set [2] it was 9.84 ± 0.54 µM. The “Selectivity Index (SI)” value with WI38 cells was 4.69; with WI38 cells (listed as doxorubicin), 5. Besides, the “Increase in active caspase-3 level” value in the data set on caspase-3 was “seven-fold”.

As for `COc1ccc(-c2nc3sc4c(c3c(=O)[nH]2)CCCC4)cc1` [III], the IC50 with lung, ovarian, CNS cells is 0.6 to 1.2 µM.

On to `COc1ccccc1-c1csc2cnc(Nc3ccc(C(=O)NC4CCNCC4)c(F)c3)nc12` [II], for which the IC50 in the data set on FAK is 0.0282 µM.

Consider `CN(C)CCn1cc(-c2ccc(F)c(C(F)(F)F)c2)nc1C1CCN(c2ncnc3c2CC(=O)N3)CC1` [LY2780301, reference compound], for which inhibition against AKT-1 [4] was half-maximal at 4.62 µM (IC50). Also, the “AKT-1 phosphorylation inhibition rate” value at AKT-1 [8] is recorded as 68.6%.

In the case of `O=C(Nc1ccc(Cl)c(Cl)c1)Nc1nnc(Sc2ncnc3scc(-c4ccncc4)c23)s1` [V], the “Pro-apoptotic effect in PC3 cells” value in the data set with PC3 cells is reported as 44%. Besides, the “Pro-apoptotic effect in HUVEC cells” value with HUVEC cells is listed as 28.45%.
